Paper PMC5681660, “Reduced hepatitis B and D viral entry using clinically applied drugs as novel inhibitors of the bile acid transporter NTCP” (Scientific Reports, 2017)
Where a name gives a salt, the structure may show the parent alone. Read-outs that look alike come from different tables or passages of the source.

Experiments:
human NTCP [1] = target: T1, human NTCP (Homo sapiens, UniProt Q14973); assay: Screening taurocholate uptake assay (96-well, [14C]taurocholate, 10 µM drug)
T1 sequence (Q14973 1-349): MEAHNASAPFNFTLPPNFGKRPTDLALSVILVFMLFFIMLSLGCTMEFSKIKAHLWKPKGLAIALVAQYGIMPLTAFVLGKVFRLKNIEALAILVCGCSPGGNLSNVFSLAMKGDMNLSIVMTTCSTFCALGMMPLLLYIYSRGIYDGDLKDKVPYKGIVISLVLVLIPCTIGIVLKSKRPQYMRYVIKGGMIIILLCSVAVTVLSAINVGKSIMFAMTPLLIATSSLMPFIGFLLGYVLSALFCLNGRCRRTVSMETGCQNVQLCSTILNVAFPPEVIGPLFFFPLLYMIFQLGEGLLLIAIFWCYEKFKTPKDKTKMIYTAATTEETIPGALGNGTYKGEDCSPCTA

human NTCP [2] = target: T1, human NTCP; assay: Screening fluorescent competitive Myrcludex B-FITC binding assay (96-well, 10 µM drug)
[3] = combined ranking from functional and binding screening assays
[4] = screen, 10 µM drug, taurocholate uptake
[5] = screen, 10 µM drug, Myrcludex B-FITC binding
[6] = Prestwick library screen, 10 µM drug, B-score of taurocholate uptake
[7] = combined ranking from functional and binding assay B-scores
[8] = Prestwick library screen, 10 µM drug, B-score of Myrcludex B-FITC binding
[9] = Prestwick library screen, taurocholate uptake, 10 µM drug
[10] = ranking score beside the functional and binding assay B-scores of the screen
[11] = Prestwick library screen, Myrcludex B-FITC binding, 10 µM drug

COC(=O)C1=C(C#N)NC(C)=C(C(=O)OC(C)C)C1c1cccc([N+](=O)[O-])c1 (stereo not drawn) [Nilvadipine]
Ranking score (human NTCP [1]; [3]): 384.686
B-score functional assay (human NTCP [1]; [4]): -2.135
B-score binding assay (human NTCP [2]; [5]): 2.397

CS(=O)(=O)Nc1ccc([N+](=O)[O-])cc1Oc1ccccc1 [Nimesulide]
Ranking score (human NTCP [1]; [3]): 428.869
B-score functional assay (human NTCP [1]; [4]): -1.398
B-score binding assay (human NTCP [2]; [5]): 0.652

O=C1NCCN1c1ncc([N+](=O)[O-])s1 [Niridazole]
Ranking score (human NTCP [1]; [3]): 301.174
B-score functional assay (human NTCP [1]; [4]): -1.225
B-score binding assay (human NTCP [2]; [5]): -0.358

CNCCC(Oc1ccccc1OC)c1ccccc1 (stereo not drawn) [Nisoxetine hydrochloride]
B-score functional assay (human NTCP [1]): -0.598
Ranking score (human NTCP [1]): 324.321
B-score binding assay (human NTCP [2]): -0.726

CCN(CC)CCOC(=O)C1(c2ccc([N+](=O)[O-])cc2)CCCC1.Cl [Nitrocaramiphen hydrochloride]
B-score functional assay (human NTCP [1]; [6]): 0.881
Ranking score (human NTCP [1]; [7]): 904.838
B-score binding assay (human NTCP [2]; [8]): 0.18

CNC(=C[N+](=O)[O-])NCCSCc1csc(CN(C)C)n1 [Nizatidine]
B-score functional assay (human NTCP [1]; [6]): 0.271
Ranking score (human NTCP [1]; [7]): 960.129
B-score binding assay (human NTCP [2]; [8]): 1.375

COC(=O)Nc1nc2ccc(C(=O)c3cccs3)cc2[nH]1 [Nocodazole]
Ranking score (human NTCP [1]; [3]): 428.035
B-score functional assay (human NTCP [1]; [4]): -1.345
B-score binding assay (human NTCP [2]; [5]): 0.497

CC(=O)O[C@]1(C(C)=O)CC[C@H]2[C@@H]3C=C(C)C4=CC(=O)CC[C@@H]4[C@H]3CC[C@@]21C [Nomegestrol acetate]
Ranking score (human NTCP [1]; [3]): 298.149
B-score functional assay (human NTCP [1]; [4]): -2.71
B-score binding assay (human NTCP [2]; [5]): 1.174

CN1Cc2c(N)cccc2C(c2ccccc2)C1 (stereo not drawn) [Nomifensine maleate]
Ranking score (human NTCP [1]; [3]): 394.208
B-score functional assay (human NTCP [1]; [4]): 0.089
B-score binding assay (human NTCP [2]; [5]): -1.176

CNCCC=C1c2ccccc2C=Cc2ccccc21 [Norcyclobenzaprine]
B-score functional assay (human NTCP [1]; [9]): 0.855
Ranking score (human NTCP [1]; [10]): 807.009
B-score binding assay (human NTCP [2]; [11]): -0.001

C#C[C@]1(O)CC[C@H]2[C@@H]3CCC4=C(CCC(=O)C4)[C@H]3CC[C@@]21C [Norethynodrel]
B-score functional assay (human NTCP [1]; [9]): 0.092
Ranking score (human NTCP [1]; [10]): 749.492
B-score binding assay (human NTCP [2]; [11]): 0.121

CCn1cc(C(=O)O)c(=O)c2cc(F)c(N3CCNCC3)cc21 [Norfloxacin]
B-score functional assay (human NTCP [1]; [9]): -0.135
Ranking score (human NTCP [1]; [10]): 788.093
B-score binding assay (human NTCP [2]; [11]): 2.084

CNCCC=C1c2ccccc2CCc2ccccc21 [Nortriptyline hydrochloride]
B-score functional assay (human NTCP [1]; [6]): 1.081
Ranking score (human NTCP [1]; [7]): 1101.36
B-score binding assay (human NTCP [2]; [8]): 1.407

CO[C@@H]1[C@@H](OC(N)=O)[C@@H](O)[C@H](Oc2ccc3c([O-])c(NC(=O)c4ccc(O)c(CC=C(C)C)c4)c(=O)oc3c2C)OC1(C)C.[Na+] [Novobiocin sodium salt]
B-score functional assay (human NTCP [1]; [6]): 1.027
Ranking score (human NTCP [1]; [7]): 942.881
B-score binding assay (human NTCP [2]; [8]): 0.269

CC(CCc1ccccc1)NC(C)C(O)c1ccc(O)cc1 (stereo not drawn) [Nylidrin]
Ranking score (human NTCP [1]; [3]): 363.793
B-score functional assay (human NTCP [1]; [4]): -0.121
B-score binding assay (human NTCP [2]; [5]): -0.92

C[C@@H]1[C@H](O)[C@@H](C)/C=C/C=C/CC/C=C/C=C/C=C/C=C/C(O[C@H]2O[C@H](C)[C@@H](O)[C@H](N)[C@@H]2O)CC2O[C@](O)(CC(O)C(O)CCC(O)CC(O)CC(O)CC(=O)O[C@H]1C)CC(O)C2C(=O)O (stereo partly drawn) [Nystatine]
B-score functional assay (human NTCP [1]; [9]): -0.141
Ranking score (human NTCP [1]; [10]): 804.798
B-score binding assay (human NTCP [2]; [11]): 3.8

CC1COc2c(N3CCN(C)CC3)c(F)cc3c(=O)c(C(=O)O)cn1c23 (stereo not drawn) [Ofloxacin]
B-score functional assay (human NTCP [1]): 1.32
Ranking score (human NTCP [1]): 1023.33
B-score binding assay (human NTCP [2]): 0.588

Cc1cc2c(s1)Nc1ccccc1N=C2N1CCN(C)CC1 [Olanzapine]
B-score functional assay (human NTCP [1]; [6]): 0.458
Ranking score (human NTCP [1]; [7]): 1041.63
B-score binding assay (human NTCP [2]; [8]): 2.253

CN(C)CC/C=C1/c2ccccc2COc2ccc(CC(=O)O)cc21 [Olopatadine hydrochloride]
B-score functional assay (human NTCP [1]; [6]): 1.227
Ranking score (human NTCP [1]; [7]): 1048.28
B-score binding assay (human NTCP [2]; [8]): 0.808

COc1ccc2[nH]c([S+]([O-])Cc3ncc(C)c(OC)c3C)nc2c1 (stereo not drawn) [Omeprazole]
Ranking score (human NTCP [1]; [3]): 423.789
B-score functional assay (human NTCP [1]; [4]): -0.074
B-score binding assay (human NTCP [2]; [5]): -0.678

Cc1nccn1CC1CCc2c(c3ccccc3n2C)C1=O.Cl (stereo not drawn) [Ondansetron Hydrochloride]
B-score functional assay (human NTCP [1]; [9]): 0.043
Ranking score (human NTCP [1]; [10]): 666.933
B-score binding assay (human NTCP [2]; [11]): 0

Cc1onc(-c2ccccc2)c1C(=O)N[C@@H]1C(=O)N2[C@@H]1SC(C)(C)[C@@H]2C(=O)[O-].[Na+] [Oxacillin sodium]
B-score functional assay (human NTCP [1]; [6]): 0.869
Ranking score (human NTCP [1]; [7]): 869.572
B-score binding assay (human NTCP [2]; [8]): 0.083

C[C@]12COC(=O)C[C@@H]1CC[C@@H]1[C@@H]2CC[C@@]2(C)[C@H]1CC[C@]2(C)O [Oxandrolone]
B-score functional assay (human NTCP [1]): -0.501
Ranking score (human NTCP [1]): 649.785
B-score binding assay (human NTCP [2]): 1.484

O=C(O)CCc1nc(-c2ccccc2)c(-c2ccccc2)o1 [Oxaprozin]
Ranking score (human NTCP [1]; [3]): 341.015
B-score functional assay (human NTCP [1]; [4]): -0.957
B-score binding assay (human NTCP [2]; [5]): -0.29

NC(=O)N1c2ccccc2CC(=O)c2ccccc21 [Oxcarbazepine]
B-score functional assay (human NTCP [1]; [9]): 0.032
Ranking score (human NTCP [1]; [10]): 789.959
B-score binding assay (human NTCP [2]; [11]): 0.508

COC(=O)Nc1nc2ccc([S+]([O-])c3ccccc3)cc2[nH]1 (stereo not drawn) [Oxfendazol]
B-score functional assay (human NTCP [1]; [6]): 0.699
Ranking score (human NTCP [1]; [7]): 1042.44
B-score binding assay (human NTCP [2]; [8]): 1.363

CCn1cc(C(=O)O)c(=O)c2cc3c(cc21)OCO3 [Oxolinic acid]
B-score functional assay (human NTCP [1]; [9]): -0.139
Ranking score (human NTCP [1]; [10]): 776.518
B-score binding assay (human NTCP [2]; [11]): 1.837

C=CCOc1ccccc1OCC(O)CNC(C)C (stereo not drawn) [Oxprenolol hydrochloride]
Ranking score (human NTCP [1]; [3]): 434.185
B-score functional assay (human NTCP [1]; [4]): -0.061
B-score binding assay (human NTCP [2]; [5]): -0.666

COc1ccc(C(=O)c2ccccc2)c(O)c1 [Oxybenzone]
B-score functional assay (human NTCP [1]; [9]): 2.742
Ranking score (human NTCP [1]; [10]): 706.929
B-score binding assay (human NTCP [2]; [11]): -0.416

CCN(CC)CC#CCOC(=O)C(O)(c1ccccc1)C1CCCCC1 (stereo not drawn) [Oxybutynin chloride]
B-score functional assay (human NTCP [1]; [9]): 0.163
Ranking score (human NTCP [1]; [10]): 808.614
B-score binding assay (human NTCP [2]; [11]): 0.285

Cc1cc(C(C)(C)C)c(O)c(C)c1CC1=NCCN1 [Oxymetazoline hydrochloride]
B-score functional assay (human NTCP [1]; [6]): 0.493
Ranking score (human NTCP [1]; [7]): 1060.78
B-score binding assay (human NTCP [2]; [8]): 2.755

CCCCC1C(=O)N(c2ccccc2)N(c2ccc(O)cc2)C1=O (stereo not drawn) [Oxyphenbutazone]
B-score functional assay (human NTCP [1]; [6]): 2.782
Ranking score (human NTCP [1]; [7]): 1000.56
B-score binding assay (human NTCP [2]; [8]): 0.23

CN(C)[C@@H]1C(O)=C(C(N)=O)C(=O)[C@@]2(O)C(O)=C3C(=O)c4c(O)cccc4[C@@](C)(O)[C@H]3[C@H](O)[C@@H]12 [Oxytetracycline dihydrate]
B-score functional assay (human NTCP [1]; [6]): 0.414
Ranking score (human NTCP [1]; [7]): 958.668
B-score binding assay (human NTCP [2]; [8]): 1.019

Cl.O=C(O)/C=C/c1ccc(Cn2ccnc2)cc1 [Ozagrel hydrochloride]
B-score functional assay (human NTCP [1]; [6]): 1.392
Ranking score (human NTCP [1]; [7]): 1118.41
B-score binding assay (human NTCP [2]; [8]): 1.332

CC(=O)O[C@H]1C(=O)[C@@]2(C)[C@H]([C@H](OC(=O)c3ccccc3)[C@]3(O)C[C@H](OC(=O)[C@H](O)[C@@H](NC(=O)c4ccccc4)c4ccccc4)C(C)=C1C3(C)C)[C@]1(OC(C)=O)CO[C@@H]1C[C@@H]2O [Paclitaxel]
B-score functional assay (human NTCP [1]; [9]): -0.069
Ranking score (human NTCP [1]; [10]): 752.811
B-score binding assay (human NTCP [2]; [11]): 0.829

O=C1c2cccc3c2[C@H](CCC3)CN1[C@@H]1CN2CCC1CC2 [Palonosetron hydrochloride]
B-score functional assay (human NTCP [1]; [9]): 1.95
Ranking score (human NTCP [1]; [10]): 833.96
B-score binding assay (human NTCP [2]; [11]): -0.051

CC(=O)O[C@H]1C[C@@H]2CC[C@@H]3[C@H](CC[C@@]4(C)[C@H]3C[C@H]([N+]3(C)CCCCC3)[C@@H]4OC(C)=O)[C@@]2(C)C[C@@H]1[N+]1(C)CCCCC1 [Pancuronium bromide]
B-score functional assay (human NTCP [1]; [9]): 0.614
Ranking score (human NTCP [1]; [10]): 767.5
B-score binding assay (human NTCP [2]; [11]): -0.008

CC(C)(CO)[C@@H](O)C(=O)NCCCO [Panthenol (D)]
B-score functional assay (human NTCP [1]; [6]): 0.501
Ranking score (human NTCP [1]; [7]): 899.92
B-score binding assay (human NTCP [2]; [8]): 0.428

COc1ccnc(C[S+]([O-])c2nc3ccc(OC(F)F)cc3[nH]2)c1OC (stereo not drawn) [Pantoprazole sodium]
B-score functional assay (human NTCP [1]): 0.443
Ranking score (human NTCP [1]): 878.449
B-score binding assay (human NTCP [2]): 0.377

COc1ccc(Cc2nccc3cc(OC)c(OC)cc23)cc1OC [Papaverine hydrochloride]
B-score functional assay (human NTCP [1]; [9]): -0.09
Ranking score (human NTCP [1]; [10]): 728.955
B-score binding assay (human NTCP [2]; [11]): 0.722

CCCCc1ccc2[nH]c(NC(=O)OC)nc2c1 [Parbendazole]
B-score functional assay (human NTCP [1]; [6]): 1.481
Ranking score (human NTCP [1]; [7]): 989.697
B-score binding assay (human NTCP [2]; [8]): 0.33

C#CCN(C)Cc1ccccc1 [Pargyline hydrochloride]
B-score functional assay (human NTCP [1]; [9]): -0.107
Ranking score (human NTCP [1]; [10]): 685.259
B-score binding assay (human NTCP [2]; [11]): 0.419
